The subject of the assay is selected test plants. Briefly: Post-emergence action in a different test arrangement (Table B3). It is filed as in vivo. Also on record: key to Post-emergence action (different test arrangement), Nasturtium / Post-emergence action (different test arrangement), Stellaria / Post-emergence action (different test arrangement), Solanum: 10=total damage; 0=no action; Ratings of from 10 to 7 (especially from 10 to 8) indicate good to very good herbicidal action. To be noted: 250 g a.i./ha.

In the case of `CC1CCC(=O)N1Cc1nc(C(F)(F)F)ccc1C(=O)C1=C(O)CCCC1=O` (centres unmarked) [Compound A1.223], the “Post-emergence action (different test arrangement), Amaranthus” value is listed as 8; the “Post-emergence action (different test arrangement), Nasturtium” value was determined as 10; the “Post-emergence action (different test arrangement), Solanum” value is listed as 9; the “Post-emergence action (different test arrangement), Stellaria” value is recorded as 9.
Take `Cn1ncc(C(=O)c2ccc(C(F)(F)F)nc2CN2CCC2=O)c1O` [Compound B1.225]: the “Post-emergence action (different test arrangement), Amaranthus” value was found to be 8; the “Post-emergence action (different test arrangement), Nasturtium” value turned out to be 10; the “Post-emergence action (different test arrangement), Solanum” value was found to be 9; the “Post-emergence action (different test arrangement), Stellaria” value is 10.
Consider `O=C1CCCC(O)=C1C(=O)c1ccc(C(F)(F)F)nc1COCCN1CCCC1=O` [Compound A1.220], for which the “Post-emergence action (different test arrangement), Amaranthus” value is listed as 9; the “Post-emergence action (different test arrangement), Nasturtium” value is 10; the “Post-emergence action (different test arrangement), Solanum” value stood at 9; the “Post-emergence action (different test arrangement), Stellaria” value is recorded as 10.
As for `CC(C)N1CC(=O)N(Cc2nc(C(F)(F)F)ccc2C(=O)C2=C(O)CCCC2=O)C1=O` [Compound A1.175], the “Post-emergence action (different test arrangement), Amaranthus” value came out at 7; the “Post-emergence action (different test arrangement), Nasturtium” value turned out to be 8; the “Post-emergence action (different test arrangement), Solanum” value was found to be 9; the “Post-emergence action (different test arrangement), Stellaria” value is listed as 7.
With `CC1CCN(Cc2nc(C(F)(F)F)ccc2C(=O)c2cnn(C)c2O)C1=O` (centres unmarked) [Compound B1.226], the “Post-emergence action (different test arrangement), Amaranthus” value was determined as 8; the “Post-emergence action (different test arrangement), Nasturtium” value is 10; the “Post-emergence action (different test arrangement), Solanum” value is recorded as 9; the “Post-emergence action (different test arrangement), Stellaria” value is 9.
Consider `O=C1CCCC(O)=C1C(=O)c1ccc(C(F)(F)F)nc1CN1CN(c2ccc(Cl)cc2)CC1=O` [Compound A1.237], for which the “Post-emergence action (different test arrangement), Amaranthus” value was 9; the “Post-emergence action (different test arrangement), Nasturtium” value was found to be 9; the “Post-emergence action (different test arrangement), Solanum” value is given as 10; the “Post-emergence action (different test arrangement), Stellaria” value worked out at 7.
Turning to `Cn1ncc(C(=O)c2ccc(C(F)(F)F)nc2CN2CCCC2=O)c1O` [Compound B1.223], the “Post-emergence action (different test arrangement), Amaranthus” value was found to be 8; the “Post-emergence action (different test arrangement), Nasturtium” value is reported as 10; the “Post-emergence action (different test arrangement), Solanum” value was 9; the “Post-emergence action (different test arrangement), Stellaria” value was determined as 10.
Regarding `CN1CCN(Cc2nc(C(F)(F)F)ccc2C(=O)C2=C(O)CCCC2=O)C1=O` [Compound A1.213], the “Post-emergence action (different test arrangement), Amaranthus” value amounted to 9; the “Post-emergence action (different test arrangement), Nasturtium” value amounted to 9; the “Post-emergence action (different test arrangement), Solanum” value stood at 9; the “Post-emergence action (different test arrangement), Stellaria” value is recorded as 9.
Take `COc1nn(Cc2nc(C(F)(F)F)ccc2C(=O)C2=C(O)CCCC2=O)c(=O)n1C` [Compound A1.025]: the “Post-emergence action (different test arrangement), Amaranthus” value came out at 9; the “Post-emergence action (different test arrangement), Nasturtium” value stood at 9; the “Post-emergence action (different test arrangement), Solanum” value came out at 9; the “Post-emergence action (different test arrangement), Stellaria” value is recorded as 9.
On to `O=C1CCCC(O)=C1C(=O)c1ccc(C(F)(F)F)nc1CN1CCC1=O` [Compound A1.221], for which the “Post-emergence action (different test arrangement), Amaranthus” value was 9; the “Post-emergence action (different test arrangement), Nasturtium” value was found to be 10; the “Post-emergence action (different test arrangement), Solanum” value is listed as 9; the “Post-emergence action (different test arrangement), Stellaria” value came out at 9.
As to `Cc1nc(C)n(Cc2nc(C(F)(F)F)ccc2C(=O)C2=C(O)CCCC2=O)c(=O)c1Cl` [Compound A1.209], the “Post-emergence action (different test arrangement), Amaranthus” value is reported as 7; the “Post-emergence action (different test arrangement), Nasturtium” value turned out to be 9; the “Post-emergence action (different test arrangement), Solanum” value turned out to be 9; the “Post-emergence action (different test arrangement), Stellaria” value turned out to be 7.

The record behind these values is US20050256003A1, “Novel herbicides” (priority 2002, published 2005).
